Assays:
[1] = system: P. falciparum ring or trophozoite stage cultures; assay: Stage of growth inhibition analysis; format: cell-based, Plasmodium falciparum; conditions: added to ring stages at its IC80
Description: For stage of growth inhibition analysis, P. falciparum cultures were synchronized at ring or trophozoite stages by repeated treatment with 5% sorbitol or 70% Percoll, respectively. Half of each culture remained untreated and the other half was treated with the IC80 of AID-X-2020. At different time points, culture samples were stained with Giemsa and the number of rings, early and mature trophozoites and schizonts was counted by microscopic examination of at least 100 pRBCs for each sample. Pictures were taken with a Nikon Eclipse 50i microscope equipped with a DS-Fi1 camera (Nikon).

P. falciparum 3D7 strain = assay: Dot blot / Western blot of treated P. falciparum cultures (ubiquitinated proteins, amyloid fibrils); format: cell-based, Plasmodium falciparum
Description: Cultures of the P. falciparum 3D7 strain were sorbitol synchronized in ring stages, and after 24 h were treated for 90 min with AID-X-2020 concentrations ranging from 33 nM to 33 μM. After that time, cultures were spun down and pellets were washed once with ice-cold PBS supplemented with EDTA-free protease inhibitor cocktail (PIC, Roche; 1 PIC tablet/10 mL PBS). For anti-ubiquitin Western blots, PBS was also supplemented with 20 mM N-ethylmaleimide. […] Protein extracts were quantified with the bicinchoninic acid assay (ThermoFisher Scientific), following the manufacturer's instructions. […]
For Western blots, 15 μg of saponin-extracted proteins were incubated for 5 min at 95° C. diluted in Laemmli solution (0.14 M SDS, 0.125 M tris-HCl, pH 6.8, 20% glycerol, 10% 2-mercaptoethanol, 3 mM bromophenol blue) and resolved by SDS-PAGE in 12% bis-tris acrylamide (Bio-Rad) gels run at 80 V until samples entered the resolving gel and at 120 V afterwards. […] After probing with secondary antibodies, for both dot blot and Western blot membranes, four washes with TBS-Tween and one last wash with TBS were done and peroxidase substrate (ECL Prime Western Blotting Detection Reagent, Amersham Life Science, Inc.) was poured on the membrane and chemiluminescent signal was measured in a LAS 4000 reader (ImageQuant) at different exposure times.

P. falciparum cultures [2] = assay: Combination assay of AID-X-2020 and artemisinin (isobologram, FIC); format: cell-based, Plasmodium falciparum; conditions: combined with artemisinin in different ratios
Description: For assays of AID-X-2020 and artemisinin, serial dilutions of both compounds were prepared at different concentration ratios (1:0, 0:1, 1:1, 1:2, 2:1, 1:5 and 5:1).
To assess the synergistic effect of AID-X-2020 and artemisinin, IC50 values for each individual compound in the mixtures were calculated as described above and plotted in an isobologram (“x” value=AID-X-2020 IC50 and “y” value=artemisinin IC50). Fractional inhibitory concentration (FIC) values were calculated by dividing the IC50 of one of the compounds in the mixture by the IC50 of the same compound in the 1:0 or 0:1 ratio mixture.

P. falciparum W2 strain = assay: Growth inhibition, chloroquine-resistant W2 strain; format: cell-based; conditions: Plasmodium falciparum
Source text: P. falciparum parasites of chloroquine-sensitive (3D7 strain) and chloroquine- and artemisinin-resistant strains were processed as described in section 1.1.3 of EXAMPLE 1.
In particular, the P. falciparum resistant strains were the following: (1) strain W2 MRA-157 (BEI Resources, managed by ATCC) which is chloroquine-resistant; (2) strains 3D7 harboring the K13 mutations associated to artemisinin resistance, either M5791 or R561H (both provided by Dr. David A. Fidock and referenced in Stokes, B. H. et al., 2021); (3) Cam 3.11 strain which is chloroquine and sulfadoxine/pyrimethamine-resistant; and (4) Cam 3.11 strain modified to carry K13 mutations associated to artemisinin-resistant strains, either R561H or R539T, therefore being multiresistant strains. All Cam 3.11 strains (3) and (4) were provided by Dr. David A. Fidock and are referenced in Straimer, J. et al., 2015 and Stokes, B. H. et al., 2021.
Then, the required amount of AID-X-2020 was added to each well at different concentrations (0.0001, 0.001, 0.01, 1 and 10 μM) and triplicates.

P. falciparum cultures [3] = assay: ThT analysis of protein aggregation in live P. falciparum cultures; format: cell-based, Plasmodium falciparum; conditions: 90 min with 90 nM, equal protein content
Description: After 90 min, 4 h and 30 h, a Percoll purification was done in order to isolate parasitized cells from uninfected RBCs. After Percoll purification, the pellets of late stage parasites and a control non-infected RBC suspension containing the same proportion of cells than the purified cultures were resuspended in 50 μl of lysis buffer (4.5 mg/ml NaCl in water supplemented with EDTA-free protease inhibitor cocktail, PIC, Hoffman-La Roche, Basel, Switzerland; 1 PIC tablet/10 ml water) and incubated overnight, at 4° C. under stirring, with the objective of releasing their inner content. After this time, lysed samples were spun down and the protein content in the supernatant was quantified with the bicinchoninic acid assay (Thermo Fisher Scientific), following the manufacturer's instructions. 30 μg of protein from each supernatant were further diluted with PBS to a final volume of 70 μl and plated on a 96-well black plate in triplicates. ThT fluorescence was measured as described above.

## CCN(CC)c1ccc(/C=C/c2cc[n+](CCCCCCCCCC[n+]3ccc(/C=C/c4ccc(N(CC)CC)cc4)c(C)c3)cc2C)cc1 [AID-X-2020, 1,1′-(decane-1,10-diyl)bis{4-[(E)-4-(diethylamino)styryl]-3-methylpyridin-1-ium} dibromide]
[1]
  stage of growth arrest: arrested the life cycle of the pathogen at trophozoite stage
P. falciparum 3D7 strain; 90 nM treatment of P. falciparum cultures, along time
  effect on ubiquitinated proteins: reduction in ubiquitinated proteins
P. falciparum 3D7 strain; 90 min exposure, dot blot
  concentration inhibiting amyloid fibril formation: > 3 µM
P. falciparum cultures [2]
  ZFIC values: higher than 1.5
P. falciparum W2 strain
  IC50: 90 ± 1 nM
P. falciparum cultures [3]
  ThT fluorescence of culture extracts: reduced emission spectrum

From patent US20240415825A1, “COMPOUNDS FOR THE TREATMENT OF MALARIA” (FUNDACIÓ INSTITUT DE BIOENGINYERIA DE CATALUNYA, priority 2021, published 2024)
